Data reported in US20180099937A1, “NOVEL ARYL-CYANOGUANIDINE COMPOUNDS” (Bayer Pharma Aktiengesellschaft, priority 2015, published 2018).

Assays:
SMYD2 [1] = biological target: T1, SMYD2 (Homo sapiens, UniProt Q9NRG4); assay: In Cell Western (ICW) cell-based assay for detection of SMYD2 methylation activity; design: expressed in transfected cells; host or cells: KYSE-150 (human esophageal carcinoma, DSMZ ACC 375); conditions: SMYD2 overexpressing KYSE-150 cells, 72 h treatment, p53K370me1 signal normalized to DRAQ5; read-out: IC50 [mol/l] (ICW assay)
T1 sequence (Q9NRG4 whole entry): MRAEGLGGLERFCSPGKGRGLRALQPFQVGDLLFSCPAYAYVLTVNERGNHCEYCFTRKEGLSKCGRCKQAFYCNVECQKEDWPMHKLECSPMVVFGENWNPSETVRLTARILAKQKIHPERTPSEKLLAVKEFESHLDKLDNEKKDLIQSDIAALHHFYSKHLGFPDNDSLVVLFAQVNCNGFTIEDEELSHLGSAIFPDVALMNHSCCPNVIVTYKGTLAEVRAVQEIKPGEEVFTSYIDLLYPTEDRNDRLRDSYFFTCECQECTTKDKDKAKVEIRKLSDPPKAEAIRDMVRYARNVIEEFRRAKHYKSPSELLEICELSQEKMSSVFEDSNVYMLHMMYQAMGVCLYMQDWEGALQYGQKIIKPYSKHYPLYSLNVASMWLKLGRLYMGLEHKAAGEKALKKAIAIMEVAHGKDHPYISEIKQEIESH
Source text: 1.2 Cell-Based Assay for Detection of SMYD2 methylation Activity
For the detection of SMYD2 cellular methylation activity an In Cell Western (ICW) assay was established. This assay allows rapid processing of multiple samples for SMYD2 methylation derived immunofluorescence signals, with normalization to cell number via the use of the nucleic acid dye DRAQS. KYSE-150 cells (human esophageal carcinoma cell line; DSMZ-German Collection of Microorganisms and Cell Cultures; No: ACC 375) have been stably transfected with a construct expressing wild-type SMYD2 (NCBI Reference Sequence: NP_064582.2). To detect SMYD2-mediated methylation signals in cells, a customized antibody directed against mono-methylated lysine 370 on protein p53 (p53K370me1) was used. The polyclonal antibody was generated (Eurogentec) against a p53 peptide containing the mono-methylated K370 epitope as described elsewhere (Huang et al., Nature, 2006, 444(7119):629-32).
For conducting the ICW assay 5000 SMYD2 overexpressing KYSE-150 cells/well were seeded in 96-well plates (SIGMA) and cultivated for 24 h. As a control for maximal inhibition of ectopic methylation activity, non-transfected KYSE-150 cells were used. Cells were grown in 49% RPMI 1640 with 49% Ham's F12 media supplemented with 2% heat inactivated fetal calf serum (FCS). For determination of SMYD2 inhibitory activity, cells were treated for 72 h in the presence of compounds or with DMSO. Cells were treated with compounds to be tested at a final concentration range varying from 3.9×10^−8 to 5×10^−6 M. Media was removed and 3.7% (w/v) formaldehyde in PBS was added for 20 min. After two washes with phosphate buffered saline (PBS), 0.25% (v/v) Triton X100 in PBS was added for 15 minutes of permeabilization. After one washing step with PBS, cells were blocked for 1 h with 5% (w/v) non-fat dry milk in PBS. Fixed cells were exposed to primary […] antibody in 5% non-fat dry milk in PBS for 24 h. One row of cells on each plate was not exposed to p53K370me1 antibody and was reserved for background control measurements. The wells were washed three times with PBS, then secondary IR800 conjugated antibody (LI-COR) and DNA-intercalating dye, 5 μM DRAQ5 (LI-COR) were added for 3 h. After 5 washes with PBS, the fluorescence in each well was measured on an Odyssey (LI-COR) scanner at 800 nm (p53K370me1 signal; 764 nm excitation) and 700 nm (DRAQS signal; 683 nm excitation). Fluorescence intensity was quantified and normalized to background and DRAQ5 signals. IC50 values were calculated by fitting the normalized inhibition data to a 4-parameter logistic equation (Minimum, Maximum, IC50, Hill; Y=Max+(Min−Max)/(1+(X/IC50)Hill)) for each tested compound. For IC50 determination C0 (=no inhibition) was defined as the signal measured for DMSO treated controls. Ci (maximal inhibition) was defined as the signal measured for non SMYD2 overexpressing KYSE150 cells.

SMYD2 [2] = biological target: T1, SMYD2; assay: Scintillation Proximity Assay (SPA) for detection of SMYD2 enzymatic inhibition; format: biochemical; design: The SMYD2 full length enzyme was produced in-house by expression (with an N-terminal 6× His tag) in E. coli; 6xHis (N); made in house; host or cells: E. coli; conditions: SMYD2 full length enzyme, p53 Peptide substrate 1.0 μM, 3H-SAM 60 nM; read-out: IC50 [mol/l] (SPA Assay)
Procedure, shortened: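 Full-length N-His SMYD2 from E. coli (typically 3 nM) was preincubated with compounds (0.1 nM–20 μM) for 15 min, then reacted 30 min at 22° C with 60 nM 3H-SAM and 1.0 μM biotinylated p53 peptide in Tris pH 9.0. Streptavidin SPA beads read methylation, and IC50 came from a 4-parameter fit.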

SMILES	IC50 (SMYD2 [1]) [nM]	IC50 (SMYD2 [2]) [nM]
CCN(C(=O)[C@H]1CCCN1)C1CN(/C(=N\C#N)Nc2cccc(OC(F)F)c2)N=C1c1ccc(Cl)c(Cl)c1 (single isomer, unassigned) [Example 1.1, N-[1-{N′-Cyano-N-[3-(difluoromethoxy)phenyl]carbamimidoyl}-3-(3,4-dichlorphenyl)-4,5-dihydro-1H-pyrazol-4-yl]-N-ethyl-D-prolinamide]	2.6	4.45
CCN(C(=O)[C@H]1C[C@@H](O)CN1)C1CN(/C(=N\C#N)Nc2cccc(OC(F)F)c2)N=C1c1ccc(Cl)c(Cl)c1 (single isomer, unassigned) [Example 3.1]	63.4	19.8
CCN(C(=O)[C@H]1CCCN1)C1CN(/C(=N\C#N)Nc2cccc(OC(F)F)c2F)N=C1c1ccc(Cl)c(Cl)c1 (single isomer, unassigned) [Example 13.1, N-[1-{N′-Cyano-N-[3-(difluoromethoxy)-2-fluorophenyl]carbamimidoyl}-3-(3,4-dichlorophenyl)-4,5-dihydro-1H-pyrazol-4-yl]-N-ethyl-D-prolinamide]	20.3	15.6
CCN(C(=O)[C@H]1CCCN1)C1CN(/C(=N\C#N)Nc2cccc(OC(F)(F)F)c2F)N=C1c1ccc(Cl)c(Cl)c1 (single isomer, unassigned) [Example 21.1, N-[1-{N′-Cyano-N-[2-fluoro-3-(trifluoromethoxy)phenyl]carbamimidoyl}-3-(3,4-dichlorophenyl)-4,5-dihydro-1H-pyrazol-4-yl]-N-ethyl-D-prolinamide]	16.8	28
CCN(C(=O)[C@H]1CCCN1)C1CN(/C(=N\C#N)Nc2cccc(OC(F)(F)F)c2F)N=C1c1ccc(Cl)c(Cl)c1 (single isomer, unassigned) [Example 21.2, N-[1-{N′-Cyano-N-[2-fluoro-3-(trifluoromethoxy)phenyl]carbamimidoyl}-3-(3,4-dichlorophenyl)-4,5-dihydro-1H-pyrazol-4-yl]-N-ethyl-D-prolinamide]	228	878
CCN(C(=O)[C@H]1CCCN1)C1CN(/C(=N\C#N)Nc2ccc(F)c(OC(F)(F)F)c2)N=C1c1ccc(Cl)c(Cl)c1 (single isomer, unassigned) [Example 22.1, N-[1-{N′-Cyano-N-[4-fluoro-3-(trifluoromethoxy)phenyl]carbamimidoyl}-3-(3,4-dichlorophenyl)-4,5-dihydro-1H-pyrazol-4-yl]-N-ethyl-D-prolinamide]	96.5	30.5
CCN(C(=O)[C@H]1CCN1)C1CN(/C(=N\C#N)Nc2cccc(OC(F)F)c2)N=C1c1ccc(Cl)c(C)c1 (single isomer, unassigned) [Example 36.1]	14.8	10.5
CCN(C(=O)[C@H]1C[C@@H](F)CN1)C1CN(/C(=N\C#N)Nc2cccc(OC(F)F)c2)N=C1c1ccc(Cl)c(C)c1 (single isomer, unassigned) [Example 38.1]	2.55	30
